Experiment: recombinant barcode read abundance after kanamycin selection (control-corrected) (log10(CPM+1)); higher = more efficient recombination; sequences stand for … in AGTGCAGAGAAAATCGGCCAGTTTTCTCTGCCTGCAGTCCGCATGCCGT…AGATTTATGCAGCGGACTGCCTTTCTCCCAAAGTGATAAACCGGACAGTATCATGGACCGGTTTTCCCGGTAATCCGTATTTGCAAGGTTGGTTTCACT; site = the 11-nt target
In short: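 Pooled oligos, each joining a target to an IS621 bridge RNA target-binding loop, were cloned and co-electroporated with a donor plasmid into E. coli. Selective plates carried chloramphenicol/ampicillin/kanamycin and 0.1 mM IPTG, while chloramphenicol/ampicillin LB agar served as control, with two replicates of each. Recombination efficiency rests on averaged, control-corrected counts per million of barcodes at recombinant junctions, shown as log10(CPM+1).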
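Also: IS621 recombinase and bridge RNA in Escherichia coli cells.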

Sequence	recombinant barcode read abundance (log10)
GGACCTCCTTGGGTTCTAACCTGTTGCGT (site GGACCTCCTAA)	0.503
GGACCTCCTTGGGTTCTAACCTGTTGCGT (site GGACCTCCTAC)	3.05
GGACCTCCTTGGGTTCTAACCTGTTGCGT (site GGACCTCCTAG)	0.272
GGACCTCCTTGGGTTCTAACCTGTTGCGT (site GGACCTCCTAT)	1.71
GGACGATCTTGGGTTCTAACCTGTTGCCT (site GGACAATCTAG)	0.471
GGACGATCTTGGGTTCTAACCTGTTGCCT (site GGACCATCTAG)	0.0164
GGACGATCTTGGGTTCTAACCTGTTGCCT (site GGACGATCTAG)	1.54
GGACGATCTTGGGTTCTAACCTGTTGCCT (site GGACTATCTAG)	0.357
GGACGCGCTTGGGTTCTAACCTGTTGCGG (site GGACGCGCTCC)	2.43
GGACGCGCTTGGGTTCTAACCTGTTGCGG (site GGGCCCGCTCC)	0.075
GGACGGCCTTGGGTTCTAACCTGTTGCCT (site GGACGACCTAG)	0.523
GGACGGCCTTGGGTTCTAACCTGTTGCCT (site GGACGCCCTAG)	0.133
GGACGGCCTTGGGTTCTAACCTGTTGCCT (site GGACGGCCTAG)	1.35
GGACGGCCTTGGGTTCTAACCTGTTGCCT (site GGACGTCCTAG)	0
GGAGAAGCTTGGGTTCTAACCTGTTGCCT (site GGAGAAGCTAG)	2.11
GGAGAAGCTTGGGTTCTAACCTGTTGCCT (site GGAGACGCTAG)	0.569
GGAGAAGCTTGGGTTCTAACCTGTTGCCT (site GGAGAGGCTAG)	1.15
GGAGAAGCTTGGGTTCTAACCTGTTGCCT (site GGAGATGCTAG)	0.158
GGAGCTTCTTGGGTTCTAACCTGTTGCCT (site GGAGCTTCTAG)	1.33
GGAGCTTCTTGGGTTCTAACCTGTTGCCT (site GTACCTTCTAG)	0.256
GGAGGTCCTTGGGTTCTAACCTGTTGCCG (site ACTCAGACTGT)	0.161
GGAGGTCCTTGGGTTCTAACCTGTTGCCG (site GGAGGTCCTCG)	1.79

Sequence	recombinant barcode read abundance (log10)
GGAGTCCCTTGGGTTCTAACCTGTTGCGA (site GGAGTCCCTTC)	2.39
GGAGTCCCTTGGGTTCTAACCTGTTGCGA (site GGATTCCCTTG)	0.0458
GGATACACTTGGGTTCTAACCTGTTGCCA (site GGATACACTTG)	1.35
GGATACACTTGGGTTCTAACCTGTTGCCA (site GGATCCACTTG)	0.041
GGATACACTTGGGTTCTAACCTGTTGCCA (site GGATGCACTTG)	0.0123
GGATACACTTGGGTTCTAACCTGTTGCCA (site GGATTCACTTG)	0.274
GGATGGACTTGGGTTCTAACCTGTTGCTT (site GGATAGCCTAA)	0.0315
GGATGGACTTGGGTTCTAACCTGTTGCTT (site GGATGGACTAA)	1.96
GGCAAACCTTGGGTTCTAACCTGTTGCGG (site CATGGGACTAT)	0.0629
GGCAAACCTTGGGTTCTAACCTGTTGCGG (site GGCAAACCTCC)	2.09
GGCAACTCTTGGGTTCTAACCTGTTGCCT (site AAGTTAGCTCC)	0
GGCAACTCTTGGGTTCTAACCTGTTGCCT (site GGCAACTCTAG)	0.0853
GGCACCGCTTGGGTTCTAACCTGTTGCCT (site GGCACAGCTAG)	0.0859
GGCACCGCTTGGGTTCTAACCTGTTGCCT (site GGCACCGCTAG)	0.905
GGCACCGCTTGGGTTCTAACCTGTTGCCT (site GGCACGGCTAG)	0.164
GGCACCGCTTGGGTTCTAACCTGTTGCCT (site GGCACTGCTAG)	0.0527
GGCAGACCTTGGGTTCTAACCTGTTGCCT (site GGCAGACCTAG)	1
GGCAGACCTTGGGTTCTAACCTGTTGCCT (site GGCAGTCCTCG)	0.373
GGCATATCTTGGGTTCTAACCTGTTGCCT (site AGTATATCTAG)	0.0602
GGCATATCTTGGGTTCTAACCTGTTGCCT (site GGCATATCTAG)	0.048
GGCATCCCTTGGGTTCTAACCTGTTGCCT (site GGCATCCCTAG)	0.337
GGCATCCCTTGGGTTCTAACCTGTTGCCT (site GGCCTCCCTAG)	0.258

Sequence	recombinant barcode read abundance (log10)
GGCATCCCTTGGGTTCTAACCTGTTGCCT (site GGCGTCCCTAG)	0.184
GGCATCCCTTGGGTTCTAACCTGTTGCCT (site GGCTTCCCTAG)	0.145
GGCCGGACTTGGGTTCTAACCTGTTGCCT (site GGCCGGACTAG)	0.937
GGCCGGACTTGGGTTCTAACCTGTTGCCT (site GGCCGGCCTAG)	0.253
GGCCGGACTTGGGTTCTAACCTGTTGCCT (site GGCCGGGCTAG)	0.112
GGCCGGACTTGGGTTCTAACCTGTTGCCT (site GGCCGGTCTAG)	0.021
GGCCGGGCTTGGGTTCTAACCTGTTGCCT (site GGCCGGACTAG)	0.143
GGCCGGGCTTGGGTTCTAACCTGTTGCCT (site GGCCGGCCTAG)	0.0912
GGCCGGGCTTGGGTTCTAACCTGTTGCCT (site GGCCGGGCTAG)	0.219
GGCCGGGCTTGGGTTCTAACCTGTTGCCT (site GGCCGGTCTAG)	0.0839
GGCCGTCCTTGGGTTCTAACCTGTTGCAG (site ACCCGTCCTCT)	0.184
GGCCGTCCTTGGGTTCTAACCTGTTGCAG (site GGCCGTCCTCT)	0.118
GGCGCCTCTTGGGTTCTAACCTGTTGCGC (site AATCTAACTAG)	0.139
GGCGCCTCTTGGGTTCTAACCTGTTGCGC (site GGCGCCTCTGC)	0.777
GGCGCGTCTTGGGTTCTAACCTGTTGCCT (site GGCGCATCTAG)	0.607
GGCGCGTCTTGGGTTCTAACCTGTTGCCT (site GGCGCGTCTAG)	0.557
GGCGTCACTTGGGTTCTAACCTGTTGCCT (site GGCGACCCTAG)	0.111
GGCGTCACTTGGGTTCTAACCTGTTGCCT (site GGCGTCACTAG)	1.24
GGCTAACCTTGGGTTCTAACCTGTTGCCT (site CATCGGACTTT)	0.0416
GGCTAACCTTGGGTTCTAACCTGTTGCCT (site GGCTAACCTAG)	1.33
GGCTACCCTTGGGTTCTAACCTGTTGCAA (site CTGGTATCTAA)	0.148
GGCTACCCTTGGGTTCTAACCTGTTGCAA (site GGCTACCCTTT)	0.774

Sequence	recombinant barcode read abundance (log10)
GGCTAGACTTGGGTTCTAACCTGTTGCGG (site GGCTAGACTCC)	1.43
GGCTAGACTTGGGTTCTAACCTGTTGCGG (site GGCTCTACTCC)	0.0457
GGCTTCTCTTGGGTTCTAACCTGTTGCCT (site GGCTTCTCTAG)	1.22
GGCTTCTCTTGGGTTCTAACCTGTTGCCT (site TGCCTCTCTAG)	0.0687
GGGAACCCTTGGGTTCTAACCTGTTGCTA (site GGGAACCCTAA)	0.147
GGGAACCCTTGGGTTCTAACCTGTTGCTA (site GGGAACCCTCA)	0.132
GGGAACCCTTGGGTTCTAACCTGTTGCTA (site GGGAACCCTGA)	0.0297
GGGAACCCTTGGGTTCTAACCTGTTGCTA (site GGGAACCCTTA)	1.29
GGGACCTCTTGGGTTCTAACCTGTTGCGG (site GGGACCTCTAC)	1.25
GGGACCTCTTGGGTTCTAACCTGTTGCGG (site GGGACCTCTCC)	1.94
GGGATGTCTTGGGTTCTAACCTGTTGCCT (site GAGATGTCTAG)	0.444
GGGATGTCTTGGGTTCTAACCTGTTGCCT (site GCGATGTCTAG)	0.128
GGGATGTCTTGGGTTCTAACCTGTTGCCT (site GGGATGTCTAG)	2.04
GGGATGTCTTGGGTTCTAACCTGTTGCCT (site GTGATGTCTAG)	0.211
GGGCAGCCTTGGGTTCTAACCTGTTGCCT (site GGGCAACCTAC)	0.0939
GGGCAGCCTTGGGTTCTAACCTGTTGCCT (site GGGCAGCCTAG)	0.458
GGGCATCCTTGGGTTCTAACCTGTTGCTT (site GGGCATCCTAA)	0.652
GGGCATCCTTGGGTTCTAACCTGTTGCTT (site GTGCACCCTAA)	0.637
GGGCCGGCTTGGGTTCTAACCTGTTGCCG (site AATGATTCTAC)	0.292
GGGCCGGCTTGGGTTCTAACCTGTTGCCG (site GGGCCGGCTCG)	1.14

Reference: the supplement of paper PMC11208160
